Data set [1] has as its system IL-6. In words: IL-6 production in LPS-stimulated THP-1 macrophages (ELISA). The data set is classed as cell-based. As to conditions: Homo sapiens, 1 h pretreatment, then LPS 1 μg/mL 24 h; for inhibition at 8 µg/mL: 8 μg/mL; for inhibition at 4 µg/mL: 4 μg/mL. The method, then:
To determine the effects of the AMTs 1–8 on the production of TNF-α, IL-6, and IL-1β, THP-1 macrophaghes were pretreated with the compounds and then stimulated with LPS, as the triggering factor to stimulate the cytokines production. The levels of pro-inflammatory cytokines in the cell supernatants were determined using the enzyme-linked immunosorbent (ELISA) kits.
Figure 2 Meroterpenoids 1–8 inhibit LPS-induced expression of TNF-α, IL-6, and IL-1β in THP-1 macrophages (A, B, and C) respectively. Cells were pretreated for 1 h with the compounds (1, 2, 3, 4, 7, and 8 at 8 μg/mL; 5 and 6 at 4 μg/mL), followed by 24 h treatment with LPS. TNF-α (A), IL-6 (B) and IL-1β (C) contents in the culture medium were determined by ELISA. Dexametasone (DEX) was used as positive control. Data are expressed as means ± SE from three independent experiments. Statistical significance is indicated (+++p < 0.001 and +++< 0.01 vs. Control; respectively * p < 0.05, ** p < 0.01, *** p < 0.001 vs. Control + LPS).
THP-1 cells were plated at a density of 3 × 10^5 cells/mL in 24-well plates and incubated with PMA (0.2 μM) for 72 h in a humidified atmosphere of 5% CO2 at 37 °C. The macrophages were pre-treated for 1 h with AMTs 1–8 (8 μg/mL for compounds 1, 2, 3, 4, 7, and 8, and 4 μg/mL for 5 and 6) and then stimulated with lipopolysaccharide (LPS, 1 μg/mL) for another 24 h. Dexamethasone (Dex) was used as positive reference compound at 1 μM. The viability of cells was greater than 95% throughout the experiment. The levels of TNF-α, IL-6, and IL-1ß in supernatants were measured with enzyme-linked immune-sorbent assay (ELISA) kits (Diaclone GEN-PROBE, Besançon cedex, France) according to the manufacturer’s protocols. The absorbance was determined at 450 nm using a microplate reader. To calculate the concentration of cytokines, a standard curve was constructed using serial dilutions of cytokine standards provided with the kit.

The subject of data set [2] is human lung adenocarcinoma A549 cells. Description: Cytotoxicity against lung cancer cells A549 (MTT assay). The data set is classed as cell-based. As to conditions: for viability at 50 µg/mL / IC50: Homo sapiens, A549, MTT; for viability at 50 µg/mL: 50 μg/mL, 72 h, read-out: cell viability of cancer cells; for IC50: 72 h of treatment, mean ± SE; for Selectivity Index SI: SI = IC50 value for normal cells (MRC-5)/IC50 value for cancer cells (A549). The method, then:
(§1) The effect of the AMTs 1–8 on cell viability was investigated in the human lung cancer cell line A549. […] It has been reported that compounds with SI value higher or equal to 2.0 are potentially selective. […] It is worth noting that after treatment with 50 μg/mL of these two AMTs, the cell viability was lower than 15% for cancer cells and higher than 55% for normal cells.
(§2) Figure 4 Effects of different concentrations of meroterpenoids 1–8 on the viability of human lung cancer cell line A549 and the human fetal lung fibroblastic MRC-5 cells, using MTT assay after 72 h of treatment. Data are mean ±SE of three independent experiments. * p < 0.05, ** p < 0.01 and […] between the two cell lines.
(§3) Cell proliferation was evaluated by a modified MTT assay, which measures the mitochondrial dehydrogenase activity. A total of 5 × 10^3 cells/well (MRC-5 cells) and 3 × 10^3 cells/well (A549 cells) were cultured in a 96-well plate for 24 h. Then, treatments were added to the cell culture. After 72 h of incubation, the medium was removed and 125 µL of MTT (1 mg/mL in medium) was added to each well and incubated for 4 h. Next, 80 µL of 20% sodium dodecyl sulphate (SDS) was added and incubated for 5 h at 37 °C. The optical density of each well was measured at 540 nm (Synergy HT multiwell plate spectrophotometer reader, BioTek Instruments Inc., Winooski, VT, USA) to quantify cell viability. Cell viability (%) was calculated according to the following formula: % viability = (absorbance of compounds treated cells/absorbance of control cells) × 100. The degree of selectivity of the compounds was expressed by its SI value. Each SI value was calculated using the formula: SI = IC50 normal cell/IC50 cancer cell.

A short description of data set [3]: Cytotoxicity against normal lung cells MRC-5 (MTT assay). Type of data set: cell-based, human. As to conditions: human, MRC-5 fetal lung fibroblast cells, 50 μg/mL, 72 h, read-out: cell viability of normal cells. The method, then: as §1, §2, §3
For data set [4], the system named is human fetal lung fibroblastic MRC-5 cells. The description is as above. The data set is classed as cell-based. As to conditions: Homo sapiens, MRC5, 72 h of treatment, mean ± SE. The method, then:
as §1, §2, §3

Data set [5] deals with A549 cells. Description: Cell cycle analysis of A549 cells by flow cytometry. The data set is classed as cell-based, human. As to conditions: IC50 concentration, 24 h; for cells at S phase: control 4.99%; for cells at G2/M phase: control 14.06%. The method, then:
We next investigated whether the treatment with AMTs 1–8 caused any cell cycle-related event, which inhibit the viability of A549 cell line. Thus, the cells were treated for 24 h with the AMTs at concentrations of IC50 (Table 1), or with colchicine (at 0.2 μg/mL) as the positive control, and then subjected to flow cytometry analysis to evaluate the distribution of cells in the different phases of the cell cycle (Figure 5A).
Figure 5 Effects of meroterpenoids 1–8 on cell cycle distribution of A549 cells. Cells were incubated with IC50 doses of the compounds for 24 h. (A) Cells were harvested to measure the cell cycle distribution by flow cytometry. (B) Quantitative analysis of cell cycle distribution after treatment. Data represent mean ±SE from three independent experiments. * p < 0.05, ** p < 0.01, and *** p < 0.001 compared with the untreated group (control).
For cell cycle analysis by flow cytometry, A549 cells were seeded at 1 × 10^6 cells/well in 6-well plates and incubated for 24 h followed by treatment with the AMTs, at concentration of IC50, and further incubation for 24 h. Colchicine (final concentration of 0.2 μg/mL) was used as positive control. Cells were harvested after trypsinization and washed once with PBS. Then, the cells were centrifuged at 1500 rpm for 5 min (25 °C), the pellet was fixed with 1 mL of ice-cold 70% ethanol, and the samples were stored at −4 °C overnight. Then the cells were washed with PBS and incubated in the darkness with PBS containing 5 mg/mL of RNase A for 48 h at 4 °C. Subsequently, 50 µL of propidium iodide (0.1 mg/mL) was added and the cells were incubated for 1 h at 4 °C. The relative DNA content per cell was analyzed using a Beckman Coulter Cytomics FC 500 MPL (Beckman Coulter Inc, San Diego, CA, USA). The data acquisition was performed with the DML program. The analysis of the acquired data was performed with the CXP cytometer.

SMILES strings stand for the structures.

In the case of `COc1c(C)cc(O)cc1C/C=C(\C)CC(=O)/C=C(\C)CCCC(C)=O` [Compound 3, cystomexicone B], the inhibition at 8 µg/mL in data set [1] worked out at 69.2%. For the same compound, in data set [2], the viability at 50 µg/mL is less than 15%, the 50% inhibitory concentration (IC50) was determined as 24.4 ± 1.71 µg/mL and the “Selectivity Index SI” value is 2.12. In data set [3], the viability at 72 h, 50 µg/mL was greater than 55%. In addition, in data set [4], the concentration for half-maximal inhibition (IC50) is 51.9 ± 2.76 µg/mL.
Turning to `COc1c(C)cc(O)cc1/C=C/C(C)(O)CC(=O)/C=C(/C)CCCC(C)C(=O)/C=C/C(C)(C)O` (stereo not drawn) [Compound 7, cystodione A], the inhibition at 8 µg/mL in data set [1] was found to be 49.6%. Besides, in data set [2], the IC50 was 9.31 ± 0.33 µg/mL and the “Selectivity Index SI” value was 1.55. For the same compound, the IC50 in data set [4] amounted to 14.5 ± 1.14 µg/mL. Also, in data set [5], the “cells at S phase” value is 13.69% and the “cells at G2/M phase” value is reported as 40.19%. The “cells at G0/G1 phase” value in data set [5] (control 71.40%) turned out to be 49.31%.
For the compound `COc1c(C)cc(O)cc1C/C=C(\C)CC(=O)/C=C(\C)CCCC(C)(O)C(=O)/C=C/C(C)(C)O` (stereo not drawn) [Compound 2, 11-hydroxy-1’-O-methylamentadione], in data set [1], the inhibition at 8 µg/mL was found to be 80.8%. Moreover, in data set [2], the IC50 turned out to be 6.61 ± 0.38 µg/mL and the “Selectivity Index SI” value was determined as 1.30. In addition, the IC50 in data set [4] is 8.65 ± 0.18 µg/mL. In data set [5], the “cells at S phase” value is 17.90% and the “cells at G2/M phase” value stood at 31.62%.
For `COc1c(C)cc(O)cc1C/C=C(\C)CC(=O)/C=C(\C)CCCC(C)C(=O)/C=C/C(C)(C)O` (stereo not drawn) [Compound 6, amentadione-1′-methyl ether], the inhibition at 4 µg/mL in data set [1] was determined as 50.9%. Also, the IC50 in data set [2] stood at 6.19 ± 0.25 µg/mL; in data set [4], 8.87 ± 0.05 µg/mL. In addition, the “Selectivity Index SI” value in data set [2] came to 1.43.
In the case of `COc1c(C)cc(O)cc1/C=C/C(C)(O)CC(=O)/C=C(\C)CCCC(C)C(=O)/C=C/C(C)(C)O` (stereo not drawn) [Compound 8, cystodione B], the inhibition at 8 µg/mL in data set [1] is 58.9%. For the same compound, in data set [2], the IC50 came out at 13.6 ± 0.55 µg/mL and the “Selectivity Index SI” value came out at 1.28. Moreover, the half-inhibitory concentration (IC50) in data set [4] came out at 17.83 ± 0.09 µg/mL. In data set [5], the “cells at S phase” value came out at 16.73% and the “cells at G2/M phase” value is listed as 32.50%.
For `COc1c(C)cc(O)cc1C/C=C(\C)CC(=O)/C=C(/C)CCCC(C)(O)C(=O)/C=C/C(C)(C)O` (stereo not drawn) [Compound 1, usneoidone Z], the inhibition at 8 µg/mL in data set [1] is 71.2%. For the same compound, in data set [2], the IC50 stood at 8.68 ± 0.15 µg/mL and the “Selectivity Index SI” value was 1.22. Besides, the half-inhibitory concentration (IC50) in data set [4] is 10.6 ± 0.5 µg/mL. Besides, in data set [5], the “cells at S phase” value was determined as 17.75% and the “cells at G2/M phase” value worked out at 31.15%.
Consider `COc1c(C)cc(O)cc1C/C=C(\C)CC(=O)/C=C(/C)CCCC(C)=O` [Compound 4, cystomexicone A], for which the inhibition at 8 µg/mL in data set [1] was 43%. In addition, in data set [2], the viability at 50 µg/mL is less than 15%, the half-maximal inhibitory concentration (IC50) was 21 ± 1.79 µg/mL and the “Selectivity Index SI” value was found to be 2.78. Further, in data set [3], the viability at 72 h, 50 µg/mL was greater than 55%. The IC50 in data set [4] came to 58.4 ± 3.3 µg/mL.
For the compound `COc1c(C)cc(O)cc1C/C=C(\C)CC(=O)/C=C(/C)CCCC(C)C(=O)/C=C/C(C)(C)O` (stereo not drawn) [Compound 5, 6-cis-amentadione-1′-methyl ether], the inhibition at 4 µg/mL in data set [1] turned out to be 67.8%. Besides, in data set [2], the IC50 was 4.56 ± 0.21 µg/mL and the “Selectivity Index SI” value was determined as 1.83. Further, the 50% inhibitory concentration (IC50) in data set [4] came to 8.39 ± 0.14 µg/mL.

Source of the values: PMC7230911, “Meroterpenoids from the Brown Alga Cystoseira usneoides as Potential Anti-Inflammatory and Lung Anticancer Agents” (Marine Drugs, 2020).
